Results published in the supplement of paper PMC10307832.

What was measured:
Experiment in all cases: relative viability (nuclei count vs DMSO), 5 days (fraction); higher = more cells survive
Wnt-C59 + Lapatinib = compound: CC1=NC=CC(=C1)C2=CC=C(C=C2)CC(=O)NC3=CC=C(C=C3)C4=CN=CC=C4 [Wnt-C59] + CS(=O)(=O)CCNCc1ccc(-c2ccc3ncnc(Nc4ccc(OCc5cccc(F)c5)c(Cl)c4)c3c2)o1 [Lapatinib] (partner 2 µM)
Summary of the method: (§1)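 Each reported value is a median over duplicate plates. It expresses relative viability: treated-well nuclei count divided by vehicle-well nuclei count. Lung cancer cell lines in 1536-well plates were dosed by pin tool a day after seeding, alone with one drug or with a fixed anchor-drug dose plus five library-drug doses (not always all listed) in √10 steps, and nuclei were counted after 5 days.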

Wnt-C59 + Crizotinib = compound: CC1=NC=CC(=C1)C2=CC=C(C=C2)CC(=O)NC3=CC=C(C=C3)C4=CN=CC=C4 [Wnt-C59] + C[C@@H](Oc1cc(-c2cnn(C3CCNCC3)c2)cnc1N)c1c(Cl)ccc(F)c1Cl [Crizotinib] (partner 1 µM)
Summary of the method: as §1

Wnt-C59 + Linsitinib = compound: CC1=NC=CC(=C1)C2=CC=C(C=C2)CC(=O)NC3=CC=C(C=C3)C4=CN=CC=C4 [Wnt-C59] + C[C@]1(O)C[C@@H](c2nc(-c3ccc4ccc(-c5ccccc5)nc4c3)c3c(N)nccn32)C1 [Linsitinib] (partner 1 µM)
Summary of the method: as §1

Wnt-C59 + Tozasertib = compound: CC1=NC=CC(=C1)C2=CC=C(C=C2)CC(=O)NC3=CC=C(C=C3)C4=CN=CC=C4 [Wnt-C59] + Cc1cc(Nc2cc(N3CCN(C)CC3)nc(Sc3ccc(NC(=O)C4CC4)cc3)n2)n[nH]1 [Tozasertib] (partner 0.1 µM)
Summary of the method: as §1

Wnt-C59 + Alpelisib = compound: CC1=NC=CC(=C1)C2=CC=C(C=C2)CC(=O)NC3=CC=C(C=C3)C4=CN=CC=C4 [Wnt-C59] + Cc1nc(NC(=O)N2CCC[C@H]2C(N)=O)sc1-c1ccnc(C(C)(C)C(F)(F)F)c1 [Alpelisib] (partner 2 µM)
Summary of the method: as §1

Row | Cell Line | relative viability (Wnt-C59 + Lapatinib; first compound 0.001 µM) | relative viability (Wnt-C59 + Lapatinib; first compound 0.01 µM) | relative viability (Wnt-C59 + Lapatinib; first compound 0.03162 µM) | relative viability (Wnt-C59 + Lapatinib; first compound 0.1 µM) | relative viability (Wnt-C59 + Crizotinib; first compound 0.001 µM) | relative viability (Wnt-C59 + Crizotinib; first compound 0.01 µM) | relative viability (Wnt-C59 + Crizotinib; first compound 0.03162 µM) | relative viability (Wnt-C59 + Crizotinib; first compound 0.1 µM) | relative viability (Wnt-C59 + Linsitinib; first compound 0.001 µM) | relative viability (Wnt-C59 + Linsitinib; first compound 0.01 µM) | relative viability (Wnt-C59 + Linsitinib; first compound 0.03162 µM) | relative viability (Wnt-C59 + Linsitinib; first compound 0.1 µM) | relative viability (Wnt-C59 + Tozasertib; first compound 0.001 µM) | relative viability (Wnt-C59 + Tozasertib; first compound 0.01 µM) | relative viability (Wnt-C59 + Tozasertib; first compound 0.03162 µM) | relative viability (Wnt-C59 + Tozasertib; first compound 0.1 µM) | relative viability (Wnt-C59 + Alpelisib; first compound 0.001 µM) | relative viability (Wnt-C59 + Alpelisib; first compound 0.01 µM) | relative viability (Wnt-C59 + Alpelisib; first compound 0.03162 µM) | relative viability (Wnt-C59 + Alpelisib; first compound 0.1 µM)
1 | SK-LU-1 | 0.798 | 0.789 | 0.915 | 0.823 | 0.869 | 0.935 | 0.91 | 1.03 | 1.01 | 1.12 | 1.07 | 1.03 | 0.317 | 0.323 | 0.331 | 0.295 | 0.996 | 0.992 | 1.08 | 1.05
2 | NCI-H2228 | 1.3 | 1.07 | 0.801 | 0.874 | 0.509 | 0.393 | 0.563 | 0.466 | 0.606 | 0.95 | 0.77 | 0.878 | 0.31 | 0.322 | 0.264 | 0.23 | 0.816 | 0.74 | 0.929 | 0.751
3 | NCI-H358 | 0.44 | 0.524 | 0.474 | 0.456 | 0.608 | 0.525 | 0.436 | 0.625 | 0.83 | 0.641 | 0.923 | 0.682 | 0.108 | 0.0976 | 0.108 | 0.0887 | 0.917 | 0.825 | 0.901 | 0.905
4 | EKVX | 0.244 | 0.183 | 0.151 | 0.206 | 1.06 | 1.09 | 0.879 | 0.874 | 1.07 | 0.846 | 1.01 | 0.757 | 0.437 | 0.357 | 0.406 | 0.402 | 0.931 | 0.783 | 0.73 | 0.668
5 | HCC-78 | 0.632 | 0.721 | 0.901 | 0.741 | 0.343 | 0.284 | 0.303 | 0.339 | 0.507 | 0.498 | 0.576 | 0.584 | 0.492 | 0.404 | 0.504 | 0.441 | 0.298 | 0.336 | 0.333 | 0.363
6 | NCI-H2085 | 0.8 | 0.726 | 0.771 | 0.819 | 0.929 | 0.803 | 0.953 | 0.823 | 0.971 | 0.867 | 1.02 | 0.947 | 0.807 | 0.795 | 0.831 | 0.824 | 0.998 | 0.97 | 0.888 | 0.904
7 | NCI-H23 | 1.14 | 1.11 | 1.31 | 0.958 | 0.521 | 0.463 | 0.537 | 0.599 | 0.719 | 0.518 | 0.579 | 0.483 | 0.377 | 0.33 | 0.446 | 0.333 | 0.68 | 0.663 | 0.822 | 0.584
8 | NCI-H647 | 1.04 | 1.08 | 1.21 | 1.04 | 1.12 | 1.15 | 1.2 | 0.909 | 1.08 | 1.15 | 1.18 | 1.22 | 0.448 | 0.27 | 0.167 | 0.179 | 1.15 | 1.11 | 1.23 | 1
9 | COR-L 105 | 0.342 | 0.381 | 0.407 | 0.358 | 0.879 | 0.808 | 0.853 | 0.76 | 1.26 | 0.988 | 0.765 | 0.804 | 0.297 | 0.332 | 0.371 | 0.437 | 1.19 | 1.03 | 0.93 | 0.78
10 | NCI-H1651 | 0.838 | 0.821 | 0.737 | 0.783 | 0.856 | 0.855 | 0.854 | 0.864 | 1 | 0.9 | 1.02 | 0.852 | 0.918 | 0.537 | 0.761 | 0.744 | 1.04 | 0.956 | 0.934 | 0.815
11 | PC-14 | 0.311 | 0.324 | 0.328 | 0.316 | 0.999 | 0.857 | 0.818 | 0.848 | 0.936 | 1.04 | 0.958 | 0.944 | 0.663 | 0.658 | 0.569 | 0.619 | 1.01 | 0.92 | 0.995 | 0.934
